Test systems include ACHN renal; HOP-62 NSCLC; LOX IMVI melanoma; MDA-MB-435; NCI/ADR-RES ovarian; SK-MEL-5 melanoma; T-47D breast.
What all share (test): DTP human tumour cell line panel, 48 h

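Where inhibition never reached the appropriate level, the endpoint shown equals the highest concentration tested. Otherwise, values were interpolated linearly from a five-concentration, 48-hour dose response in 96-well plates. GI50 marks 50% less growth. TGI marks complete inhibition of growth.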

For orientation: GI50 means the concentration at which growth is held to half of that of the control. The TGI is the concentration giving total growth inhibition. A low value points to more potent growth arrest. Turning to `CN(C)CC[C@H](CSc1ccccc1)Nc1ccc(S(=O)(=O)NC(=O)c2ccc(N3CCN(Cc4ccccc4-c4ccc(Cl)cc4)CC3)cc2)cc1[N+](=O)[O-]`, the GI50 in the assay with ACHN renal is 4.96 µM; in the assay with HOP-62 NSCLC it was 9.66 µM; in the assay on LOX IMVI melanoma, 2.77 µM; in the assay on MDA-MB-435 it was 2.47 µM; in the assay with NCI/ADR-RES ovarian, more than 61.6 µM; in the assay on SK-MEL-5 melanoma, 1.56 µM. The GI50 in the assay on T-47D breast is 5.87 µM. Further, the total growth inhibition concentration (TGI) is more than 50.6 µM with ACHN renal; more than 60.2 µM in the assay on HOP-62 NSCLC; more than 100 µM with LOX IMVI melanoma; more than 34.6 µM with MDA-MB-435; more than 100 µM with NCI/ADR-RES ovarian; 3.23 µM in the assay on SK-MEL-5 melanoma. In the assay on T-47D breast, the TGI is more than 60.4 µM.

For the molecule `COc1ccc(-c2ccc(=O)oc2C#Cc2cc(OC)c(OC)c(OC)c2)cc1O`, the GI50 was 0.628 µM with ACHN renal; 1.65 µM in the assay with HOP-62 NSCLC; 0.399 µM in the assay on LOX IMVI melanoma; 0.262 µM in the assay on NCI/ADR-RES ovarian; 0.183 µM in the assay with SK-MEL-5 melanoma; 6.4 µM in the assay with T-47D breast. For the same molecule, the TGI in the assay with ACHN renal was more than 62.1 µM; in the assay on HOP-62 NSCLC, more than 100 µM; in the assay with LOX IMVI melanoma it was more than 100 µM; in the assay on NCI/ADR-RES ovarian, more than 43.8 µM; with SK-MEL-5 melanoma it was 1.16 µM; with T-47D breast it was more than 100 µM.

As to `COc1ccc(-c2nnc3n(C)c(=O)c4ccccc4n23)cc1N`, the GI50 with ACHN renal was 17.3 µM; with HOP-62 NSCLC, 0.0482 µM; in the assay on LOX IMVI melanoma it was 3.01 µM; with MDA-MB-435 it was 0.0226 µM; in the assay with NCI/ADR-RES ovarian, 0.0656 µM; in the assay with SK-MEL-5 melanoma it was 0.0598 µM. Moreover, the TGI in the assay on ACHN renal is more than 100 µM; with HOP-62 NSCLC, more than 100 µM; with LOX IMVI melanoma, more than 100 µM; with MDA-MB-435, 0.0799 µM; in the assay on NCI/ADR-RES ovarian it was more than 100 µM; with SK-MEL-5 melanoma, more than 100 µM.

In the case of `COc1cc(N=Nc2ccc(O)c3ncccc23)c2ncccc2c1`, the GI50 in the assay on ACHN renal is 2.3 µM; with LOX IMVI melanoma, 2.13 µM; in the assay on MDA-MB-435 it was 4.64 µM; in the assay on NCI/ADR-RES ovarian, 1.02 µM; in the assay with SK-MEL-5 melanoma, 2.09 µM; with T-47D breast, 3.23 µM. Besides, the TGI in the assay on ACHN renal is 14.2 µM; in the assay with LOX IMVI melanoma, more than 100 µM; in the assay on MDA-MB-435 it was more than 100 µM; with NCI/ADR-RES ovarian it was 15.5 µM; in the assay with SK-MEL-5 melanoma it was 13.3 µM; in the assay with T-47D breast, more than 100 µM.

For `O=C(Nc1cccc(C(F)(F)F)c1)c1ccc(NC2=C(Cl)C(=O)N(Cc3ccc(Cl)cc3Cl)C2=O)cc1`, the GI50 was 11.9 µM in the assay with ACHN renal; 18 µM in the assay on HOP-62 NSCLC; 1.63 µM in the assay with LOX IMVI melanoma; 16.1 µM in the assay on MDA-MB-435; 1.78 µM in the assay with SK-MEL-5 melanoma; 2.8 µM in the assay with T-47D breast. For the same molecule, the TGI is 46.1 µM with ACHN renal; 32.2 µM in the assay on HOP-62 NSCLC; 3.44 µM with LOX IMVI melanoma; 32.4 µM in the assay on MDA-MB-435; 3.5 µM with SK-MEL-5 melanoma; more than 100 µM with T-47D breast.

For `Cc1nc(Nc2cccnc2)sc1C(=O)/C=C/c1ccc(F)cc1`, the GI50 with HOP-62 NSCLC was 2.61 µM; in the assay with LOX IMVI melanoma it was 2.36 µM; in the assay with MDA-MB-435 it was 2.71 µM; in the assay on NCI/ADR-RES ovarian it was 3.24 µM; in the assay on SK-MEL-5 melanoma it was 3.64 µM; in the assay on T-47D breast, 2.25 µM. For the same molecule, the TGI was 7.6 µM in the assay on HOP-62 NSCLC; 6.52 µM in the assay on LOX IMVI melanoma; 11.2 µM in the assay on MDA-MB-435; more than 100 µM in the assay with NCI/ADR-RES ovarian; 13.4 µM in the assay with SK-MEL-5 melanoma; more than 100 µM with T-47D breast.

As for `COC(=O)c1c2c(c(C)[n+]([O-])c1C)C(=O)C=C(NCc1ccc(F)cc1)C2=O`, the GI50 in the assay on HOP-62 NSCLC was 1.38 µM; in the assay on LOX IMVI melanoma, 0.224 µM; in the assay with MDA-MB-435, 0.173 µM; in the assay on NCI/ADR-RES ovarian, 0.432 µM; with SK-MEL-5 melanoma, 0.193 µM; in the assay on T-47D breast, 0.288 µM. Besides, the TGI in the assay with HOP-62 NSCLC amounted to 3.76 µM; with LOX IMVI melanoma it was 2.09 µM; in the assay on MDA-MB-435, 0.339 µM; with NCI/ADR-RES ovarian it was 5.38 µM; in the assay with SK-MEL-5 melanoma, 0.405 µM; with T-47D breast, 1.88 µM.

Regarding `COc1ccc(C(=O)Nc2ccc(O)c(=O)cc2)cc1`, the TGI was 59.8 µM with ACHN renal; more than 100 µM in the assay on HOP-62 NSCLC; more than 100 µM with LOX IMVI melanoma; more than 100 µM in the assay with MDA-MB-435; more than 100 µM with NCI/ADR-RES ovarian; more than 100 µM in the assay with SK-MEL-5 melanoma.

As for `CCOc1ccc(/C=C2\N=C(c3ccc([N+](=O)[O-])cc3)OC2=O)cc1`, the total growth inhibition concentration (TGI) in the assay with ACHN renal, in the assay on HOP-62 NSCLC, with LOX IMVI melanoma, with MDA-MB-435, in the assay on SK-MEL-5 melanoma and in the assay on T-47D breast was more than 100 µM each time.

Regarding `COc1cc(N(CCC#N)CCC#N)ccc1/C(N=Nc1ccc(Cl)cc1)=N/NC(=O)c1cc(Br)ccc1O`, the GI50 in the assay on ACHN renal is 86.1 µg/mL; in the assay with LOX IMVI melanoma, 49.3 µg/mL; in the assay on MDA-MB-435, more than 150 µg/mL; in the assay on NCI/ADR-RES ovarian, 53.2 µg/mL; in the assay with SK-MEL-5 melanoma it was 82 µg/mL; with T-47D breast it was 69.9 µg/mL. Also, the TGI in the assay on ACHN renal, with LOX IMVI melanoma, with MDA-MB-435, in the assay on NCI/ADR-RES ovarian, in the assay on SK-MEL-5 melanoma and in the assay with T-47D breast was more than 150 µg/mL in each case.

With `CCn1c(O)c(/C=N/NC(=O)C(C)c2ccc(CC(C)C)cc2)sc1=S` (centres undefined), the GI50 is 0.813 µM with ACHN renal; 0.549 µM in the assay on HOP-62 NSCLC; 0.594 µM in the assay with LOX IMVI melanoma; 0.276 µM in the assay with NCI/ADR-RES ovarian; 0.489 µM with SK-MEL-5 melanoma; 0.56 µM in the assay with T-47D breast. The TGI was more than 38.8 µM in the assay with ACHN renal; more than 50.7 µM in the assay on HOP-62 NSCLC; more than 36.1 µM in the assay on LOX IMVI melanoma; more than 38.8 µM with NCI/ADR-RES ovarian; 3.26 µM in the assay on SK-MEL-5 melanoma; more than 100 µM in the assay with T-47D breast.

With `CCC(C)(C)c1ccc(OCCCCNC(=O)c2ccc3ccccc3c2O)c(C(C)(C)CC)c1`, the TGI was more than 100 µM in the assay with ACHN renal; more than 100 µM with HOP-62 NSCLC; more than 100 µM in the assay with NCI/ADR-RES ovarian; 71.4 µM in the assay on SK-MEL-5 melanoma; more than 100 µM with T-47D breast.

On to `NC1CCN(Cc2ccccc2)CC1`, for which the GI50 with ACHN renal is more than 100 µM; with LOX IMVI melanoma it was more than 100 µM; with MDA-MB-435 it was more than 100 µM; in the assay with NCI/ADR-RES ovarian, more than 100 µM; with SK-MEL-5 melanoma, 24.2 µM; in the assay on T-47D breast, more than 100 µM. Moreover, the concentration for total growth inhibition (TGI) in the assay with ACHN renal, in the assay on LOX IMVI melanoma, in the assay on MDA-MB-435, with NCI/ADR-RES ovarian, in the assay on SK-MEL-5 melanoma and in the assay on T-47D breast was more than 100 µM each time.

Source of the values: PubChem BioAssay (NCI).
